From US10160726B2, “Quinolone derivatives as antibacterials” (priority 2014, dated 2018)
In brackets after ≈: the same amount, converted by molar mass. Counter-ions that a name gives are not always drawn.

Legend:
[1] = target: E. coli DNA topoisomerase IV (Topo IV, ParC-E) (Escherichia coli, UniProt P0AFI2); assay: Decatenation assay of E. coli Topo IV; type: biochemical; conditions: decatenation activity of E. coli topoIV (ParC-E); read-out: ParC-E IC50 (Enzyme)
Description: Method 2: Decatenation Assay of E. Coli Topo IV
Enzymatic activity of the E. coli DNA topoisomerase IV (Topo IV) reconstituted from its purified subunits was monitored by the decatenation of kinetoplast DNA into minicircles (kDNA, TopoGEN, TG2013-3). To form the functional Topo IV C2E2 heterotetrameric enzyme, equal molar concentrations of the ParC and ParE subunits were combined at high protein concentration (500 nM) and incubated on ice for 1 hour prior to assay start in reaction buffer without ATP or the kDNA. […] The reaction was carried out at 37° C. for 2 hours and terminated by the addition of 2.5 μl of 10× stop solution (0.9% SDS, 50% glycerol, 0.05% bromophenol blue). […] Gels were stained with ethidium bromide (0.5 μg/ml) for 30 minutes and distained in water for 20 minutes. All gels were analyzed using the BIO-RAD ChemiDoc™ XRS^+ with Image Lab 3.0 software. The 50% inhibitor concentration (IC50) was determined as being the compound concentration at which the presence of the kDNA minicircles in the gel was reduced by 50% from the DMSO drug free control (Microsoft Excel 2010 IDBS XLfit, Graph Pad Prism 6).

[2] = tested on: P. aeruginosa NB52023 (efflux deficient K1542, ΔmexX ΔmexB); assay: microbe, parasite or virus in culture; type: cell-based; conditions: Pseudomonas aeruginosa, 20 h, read-out: Antibacterial activity (MIC) NB52023
[3] = target: E. coli DNA gyrase (GyrA-B) (Escherichia coli, UniProt P0AES4); assay: Supercoiling assay of E. coli gyrase; type: biochemical; conditions: supercoiling activity of E. coli gyrase (GyrA-B); read-out: GyrA-B IC50 (Enzyme)
E. coli DNA gyrase (GyrA-B), sequence (P0AES4 whole entry): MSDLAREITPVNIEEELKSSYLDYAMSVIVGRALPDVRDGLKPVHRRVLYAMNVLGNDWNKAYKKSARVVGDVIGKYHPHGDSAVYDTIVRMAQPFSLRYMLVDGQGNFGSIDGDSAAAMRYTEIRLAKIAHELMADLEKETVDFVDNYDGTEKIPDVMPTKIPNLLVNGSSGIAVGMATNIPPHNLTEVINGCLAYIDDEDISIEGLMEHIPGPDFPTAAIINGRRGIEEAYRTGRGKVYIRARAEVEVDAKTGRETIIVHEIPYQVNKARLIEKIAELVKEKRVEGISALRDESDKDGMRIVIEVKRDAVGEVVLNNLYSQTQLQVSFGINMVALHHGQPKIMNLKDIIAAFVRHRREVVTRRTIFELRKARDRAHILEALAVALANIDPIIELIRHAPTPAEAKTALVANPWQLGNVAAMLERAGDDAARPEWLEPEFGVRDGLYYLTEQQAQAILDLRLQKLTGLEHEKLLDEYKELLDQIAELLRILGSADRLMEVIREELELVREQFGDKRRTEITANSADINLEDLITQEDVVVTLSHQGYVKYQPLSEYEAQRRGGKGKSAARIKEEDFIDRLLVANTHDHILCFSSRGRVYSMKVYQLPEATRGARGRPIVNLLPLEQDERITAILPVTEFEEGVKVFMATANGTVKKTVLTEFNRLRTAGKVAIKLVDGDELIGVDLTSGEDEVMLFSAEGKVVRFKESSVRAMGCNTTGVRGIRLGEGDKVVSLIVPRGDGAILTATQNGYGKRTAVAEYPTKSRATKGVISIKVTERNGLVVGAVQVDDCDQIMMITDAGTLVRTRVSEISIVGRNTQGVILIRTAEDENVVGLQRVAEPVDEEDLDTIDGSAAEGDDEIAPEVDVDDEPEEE
Description: Method 1: Supercoiling Assay of E. Coli Gyrase
Enzymatic activity of E. coli DNA gyrase reconstituted from its purified subunits was assessed by monitoring the introduction of supercoils into the relaxed plasmid pHOT-1 (TopoGEN, TG2035-3). To form the functional gyrase A2B2 heterotetrameric enzyme, equal molar concentrations of the GyrA and GyrB subunits were combined at high protein concentration (500 nM) and incubated on ice for 1 hour prior to assay start in reaction buffer without ATP or the pHOT-1 plasmid. The reaction mixture (25 μl) contained 10 nM enzyme, 10 ng/μl pHOT-1, 1 mM ATP, 35 mM Tris-HCl pH 7.5, 24 mM KCl, 4 mM MgCl2, 2 mM DTT, 1.8 mM spermidine, 6.5% glycerol, and 100 μg/ml bovine serum albumin. The reaction was carried out at 37° C. for 90 minutes and terminated by the addition of 2.5 μl of 10× stop solution (0.9% SDS, 50% glycerol, 0.05% bromophenol blue). […] Gels were stained with ethidium bromide (0.5 μg/ml) for 30 minutes and destained in water for 20 minutes. All gels were analyzed using the BIO-RAD ChemiDocTm XRS+ with Image Lab 3.0 software. The 50% inhibition concentration (IC50) was determined as being the compound concentration at which the supercoiled band was reduced by 50% from the DMSO drug free control (Microsoft Excel 2010 IDBS XLfit, GraftPad Prism 6).

[4] = tested on: P. aeruginosa NB52023-CDK0006 (gyrA T83I, parC S87L); assay: microbe, parasite or virus in culture; type: cell-based; conditions: Pseudomonas aeruginosa, 20 h, read-out: Antibacterial activity (MIC) NB52023-CDK0006
[5] = tested on: S. aureus NB01006-AVR005 (gyrA S84L, grlA S80F, grlB E471K); assay: microbe, parasite or virus in culture; type: cell-based; conditions: Staphylococcus aureus, 20 h, read-out: Antibacterial activity (MIC) NB01006-AVR005
[6] = tested on: S. aureus ATCC 29213 (NB01001); assay: MIC, broth microdilution (CLSI); type: cell-based; conditions: Staphylococcus aureus, ATCC29213; S. aureus ATCC 29213; 35° C., 20 hours; read-out: Antibacterial activity (MIC) NB01001
[7] = tested on: E. coli NB27177 (efflux deficient CGSC 11430, ΔtolC732::kan); assay: microbe, parasite or virus in culture; type: cell-based; conditions: Escherichia coli, 20 h, read-out: Antibacterial activity (MIC) NB27177
[8] = tested on: P. aeruginosa NB52019 (wild-type PAO1); assay: MIC, broth microdilution (CLSI); type: cell-based; conditions: Pseudomonas aeruginosa, PAO1, 20 h; read-out: Antibacterial activity (MIC) NB52019
[9] = tested on: E. coli ATCC 25922 (NB27001); assay: MIC, broth microdilution (CLSI); type: cell-based; conditions: Escherichia coli, ATCC25922; E. coli ATCC 25922; 35° C., 20 hours; read-out: Antibacterial activity (MIC) NB27001

E. coli DNA topoisomerase IV (Topo IV, ParC-E), sequence (P0AFI2 whole entry): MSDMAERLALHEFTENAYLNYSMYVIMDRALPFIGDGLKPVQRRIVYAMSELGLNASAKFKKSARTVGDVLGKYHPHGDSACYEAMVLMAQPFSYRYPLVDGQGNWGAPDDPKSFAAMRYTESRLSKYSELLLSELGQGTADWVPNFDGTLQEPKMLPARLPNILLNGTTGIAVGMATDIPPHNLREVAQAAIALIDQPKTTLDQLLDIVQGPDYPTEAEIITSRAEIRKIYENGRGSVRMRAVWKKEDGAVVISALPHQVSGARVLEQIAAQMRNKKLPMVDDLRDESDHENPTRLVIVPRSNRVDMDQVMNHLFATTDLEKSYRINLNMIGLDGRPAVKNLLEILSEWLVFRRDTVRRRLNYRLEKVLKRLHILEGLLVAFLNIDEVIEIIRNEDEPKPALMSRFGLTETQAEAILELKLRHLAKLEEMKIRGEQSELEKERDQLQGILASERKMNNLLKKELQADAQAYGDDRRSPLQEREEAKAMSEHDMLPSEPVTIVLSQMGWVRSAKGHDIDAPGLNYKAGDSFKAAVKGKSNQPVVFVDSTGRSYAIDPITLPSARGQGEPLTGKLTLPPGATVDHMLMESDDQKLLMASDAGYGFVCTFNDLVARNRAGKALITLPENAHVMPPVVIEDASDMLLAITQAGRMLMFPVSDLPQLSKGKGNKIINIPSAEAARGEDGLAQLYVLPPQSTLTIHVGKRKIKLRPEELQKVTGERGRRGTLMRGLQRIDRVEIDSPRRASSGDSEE
E. coli DNA topoisomerase IV (Topo IV, ParC-E), sequence (P20083 whole entry, further chain): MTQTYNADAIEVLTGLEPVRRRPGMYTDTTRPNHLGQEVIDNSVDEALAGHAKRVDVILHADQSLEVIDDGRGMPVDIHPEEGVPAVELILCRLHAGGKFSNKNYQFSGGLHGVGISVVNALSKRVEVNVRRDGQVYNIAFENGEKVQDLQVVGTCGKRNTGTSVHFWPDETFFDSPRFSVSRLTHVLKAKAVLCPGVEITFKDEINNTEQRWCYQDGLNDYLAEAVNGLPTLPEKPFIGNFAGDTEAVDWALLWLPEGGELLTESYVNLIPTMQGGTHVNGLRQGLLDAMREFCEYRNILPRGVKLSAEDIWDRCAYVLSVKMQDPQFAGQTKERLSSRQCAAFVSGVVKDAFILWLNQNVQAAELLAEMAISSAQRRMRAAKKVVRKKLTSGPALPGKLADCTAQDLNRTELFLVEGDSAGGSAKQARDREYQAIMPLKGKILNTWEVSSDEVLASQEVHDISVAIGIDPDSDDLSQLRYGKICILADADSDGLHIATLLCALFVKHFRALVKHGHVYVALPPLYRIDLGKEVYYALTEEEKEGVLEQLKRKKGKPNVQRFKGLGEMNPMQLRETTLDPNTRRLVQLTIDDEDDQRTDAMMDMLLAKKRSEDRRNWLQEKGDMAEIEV

**Q.** What does the source list for `Cc1c(N2CC[C@@H]([C@H](C)N)C2)c(F)cc2c(-c3n[nH]c(=O)o3)cc(=O)n(C3CC3)c12` [Example 42, 5-(7-((R)-3-((S)-1-aminoethyl)pyrrolidin-1-yl)-1-cyclopropyl-6-fluoro-8-methyl-2-oxo-1,2-dihydroquinolin-4-yl)-1,3,4-oxadiazol-2(3H)-one]?
**A.** IC50 [1]: 1.86 µM; MIC [2]: 8 µg/mL (≈ 19.3 µM); IC50 [3]: 0.83 µM; MIC [4]: 32 µg/mL (≈ 77.4 µM); MIC [5]: 0.5 µg/mL (≈ 1.21 µM); MIC [6]: 0.5 µg/mL (≈ 1.21 µM); MIC [7]: 0.25 µg/mL (≈ 0.605 µM); MIC [8]: > 32 µg/mL; MIC [9]: 8 µg/mL (≈ 19.3 µM)

**Q.** How did the IC50 [1] turn out when `Cc1c(N2CC[C@@H]([C@H](C)N)C2)c(F)cc2c(C(=O)NO)cc(=O)n(C3CC3)c12` [Example 43, 7-((R)-3-((S)-1-aminoethyl)pyrrolidin-1-yl)-1-cyclopropyl-6-fluoro-N-hydroxy-8-methyl-2-oxo-1,2-dihydroquinoline-4-carboxamide] was run?
**A.** Its IC50 is 3.35 µM.

**Q.** What about the MIC [2] of the same compound?
**A.** The MIC was over 32 µg/mL.

**Q.** And the IC50 [3]?
**A.** Its IC50 is 0.56 µM.

**Q.** And the MIC [4]?
**A.** Its MIC is over 32 µg/mL.

**Q.** What about the MIC [5] of the same compound?
**A.** Its MIC is 16 µg/mL (≈ 41.2 µM).

**Q.** And the MIC [6]?
**A.** Its MIC is 8 µg/mL (≈ 20.6 µM).

**Q.** What about the MIC [7] of the same compound?
**A.** Its MIC is 4 µg/mL (≈ 10.3 µM).

**Q.** And the MIC [8]?
**A.** The MIC was over 32 µg/mL.

**Q.** What about the MIC [9] of the same compound?
**A.** The MIC was 32 µg/mL (≈ 82.4 µM).

**Q.** Which results are given for `Cc1c(N2CC[C@@H]([C@H](C)N)C2)c(F)cc2c(CN)cc(=O)n(C3CC3)c12` [Example 45, 7-((R)-3-((S)-1-aminoethyl)pyrrolidin-1-yl)-4-(aminomethyl)-1-cyclopropyl-6-fluoro-8-methylquinolin-2(1H)-one]?
**A.** IC50 [1]: 0.24 µM; MIC [2]: 0.5 µg/mL (≈ 1.39 µM); IC50 [3]: < 0.1 µM; MIC [4]: 2 µg/mL (≈ 5.58 µM); MIC [5]: 0.5 µg/mL (≈ 1.39 µM); MIC [6]: 0.25 µg/mL (≈ 0.697 µM); MIC [7]: 0.06 µg/mL (≈ 0.167 µM); MIC [8]: 2 µg/mL (≈ 5.58 µM); MIC [9]: 1 µg/mL (≈ 2.79 µM)

**Q.** Which IC50 [1] does the source give for `Cc1c(N2CC[C@@H]([C@H](C)N)C2)ccc2c(OCC3CCOCC3)cc(=O)n(C3CC3)c12` [Example 73, 7-((R)-3-((S)-1-aminoethyl)pyrrolidin-1-yl)-1-cyclopropyl-8-methyl-4-((tetrahydro-2H-pyran-4-yl)methoxy)quinolin-2(1H)-one TFA salt] here?
**A.** Its IC50 is 4.97 µM.

**Q.** And the MIC [2]?
**A.** Its MIC is over 32 µg/mL.

**Q.** And the IC50 [3]?
**A.** Its IC50 is 3.01 µM.

**Q.** And the MIC [4]?
**A.** The MIC was over 32 µg/mL.

**Q.** And the MIC [5]?
**A.** Its MIC is 4 µg/mL.

**Q.** What about the MIC [6] of the same compound?
**A.** The MIC was 1 µg/mL.

**Q.** What about the MIC [7] of the same compound?
**A.** The MIC was 2 µg/mL.

**Q.** And the MIC [8]?
**A.** The MIC was over 32 µg/mL.

**Q.** What about the MIC [9] of the same compound?
**A.** Its MIC is 32 µg/mL.

**Q.** For `Cc1c(N2CC[C@@H]([C@H](C)N)C2)ccc2c(OCCN(C)C)cc(=O)n(C3CC3)c12` [Example 74, 7-((R)-3-((S)-1-aminoethyl)pyrrolidin-1-yl)-1-cyclopropyl-4-(2-(dimethylamino)ethoxy)-8-methylquinolin-2(1H)-one TFA salt], which IC50 [1] is on record?
**A.** Its IC50 is 0.24 µM.

**Q.** And the MIC [2]?
**A.** Its MIC is 8 µg/mL.

**Q.** What about the IC50 [3] of the same compound?
**A.** The IC50 was 0.31 µM.

**Q.** What about the MIC [4] of the same compound?
**A.** The MIC was 16 µg/mL.

**Q.** What about the MIC [5] of the same compound?
**A.** The MIC was 2 µg/mL.

**Q.** What about the MIC [6] of the same compound?
**A.** Its MIC is 1 µg/mL.

**Q.** What about the MIC [7] of the same compound?
**A.** The MIC was 0.25 µg/mL.

**Q.** And the MIC [8]?
**A.** The MIC was 32 µg/mL.

**Q.** What about the MIC [9] of the same compound?
**A.** Its MIC is 8 µg/mL.

**Q.** What does the source list for `Cc1c(N2CC[C@@H]([C@H](C)N)C2)ccc2ccc(=O)n(C3CC3)c12` [Example 76, 7-((R)-3-((S)-1-aminoethyl)pyrrolidin-1-yl)-1-cyclopropyl-8-methylquinolin-2(1H)-one trifluoroacetic acid salt]?
**A.** IC50 [1]: 38.5 µM; MIC [2]: 8 µg/mL; IC50 [3]: 6.8 µM; MIC [4]: 16 µg/mL; MIC [5]: 0.5 µg/mL; MIC [6]: 0.25 µg/mL; MIC [7]: 0.125 µg/mL; MIC [8]: 32 µg/mL; MIC [9]: 4 µg/mL

**Q.** What does the source list for `Cc1c(N2CC[C@@H]([C@H](C)N)C2)ccc2cc(O)c(=O)n(C3CC3)c12` [Example 79, 7-((R)-3-((S)-1-aminoethyl)pyrrolidin-1-yl)-1-cyclopropyl-3-hydroxy-8-methylquinolin-2(1H)-one TFA salt]?
**A.** IC50 [1]: 1.84 µM; MIC [2]: > 32 µg/mL; IC50 [3]: 2.44 µM; MIC [4]: > 32 µg/mL; MIC [5]: 8 µg/mL; MIC [6]: 2 µg/mL; MIC [7]: 1 µg/mL; MIC [8]: > 32 µg/mL; MIC [9]: 8 µg/mL
